Data: patent publication US20050143391A1, “Heterocyclic amides with alpha-4 integrin antagonist activity” (J. Uriach Y Compañia S.A., priority 2002, published 2005)

The compounds below were run against T1, integrin α4β1 (Homo sapiens, UniProt P05556+P13612) (assay: Inhibition of α4β1-dependent cell adhesion (Jurkat cells to peptide CS-1)). Details: adhesion of Jurkat cells to CS-1-coated plates; products preincubated with cells at 37° C. for 30 minutes; at least 6 product concentrations.
T1 construct: endogenous in cells; host or cells: Jurkat cells
T1 sequence (P13612 34-1032): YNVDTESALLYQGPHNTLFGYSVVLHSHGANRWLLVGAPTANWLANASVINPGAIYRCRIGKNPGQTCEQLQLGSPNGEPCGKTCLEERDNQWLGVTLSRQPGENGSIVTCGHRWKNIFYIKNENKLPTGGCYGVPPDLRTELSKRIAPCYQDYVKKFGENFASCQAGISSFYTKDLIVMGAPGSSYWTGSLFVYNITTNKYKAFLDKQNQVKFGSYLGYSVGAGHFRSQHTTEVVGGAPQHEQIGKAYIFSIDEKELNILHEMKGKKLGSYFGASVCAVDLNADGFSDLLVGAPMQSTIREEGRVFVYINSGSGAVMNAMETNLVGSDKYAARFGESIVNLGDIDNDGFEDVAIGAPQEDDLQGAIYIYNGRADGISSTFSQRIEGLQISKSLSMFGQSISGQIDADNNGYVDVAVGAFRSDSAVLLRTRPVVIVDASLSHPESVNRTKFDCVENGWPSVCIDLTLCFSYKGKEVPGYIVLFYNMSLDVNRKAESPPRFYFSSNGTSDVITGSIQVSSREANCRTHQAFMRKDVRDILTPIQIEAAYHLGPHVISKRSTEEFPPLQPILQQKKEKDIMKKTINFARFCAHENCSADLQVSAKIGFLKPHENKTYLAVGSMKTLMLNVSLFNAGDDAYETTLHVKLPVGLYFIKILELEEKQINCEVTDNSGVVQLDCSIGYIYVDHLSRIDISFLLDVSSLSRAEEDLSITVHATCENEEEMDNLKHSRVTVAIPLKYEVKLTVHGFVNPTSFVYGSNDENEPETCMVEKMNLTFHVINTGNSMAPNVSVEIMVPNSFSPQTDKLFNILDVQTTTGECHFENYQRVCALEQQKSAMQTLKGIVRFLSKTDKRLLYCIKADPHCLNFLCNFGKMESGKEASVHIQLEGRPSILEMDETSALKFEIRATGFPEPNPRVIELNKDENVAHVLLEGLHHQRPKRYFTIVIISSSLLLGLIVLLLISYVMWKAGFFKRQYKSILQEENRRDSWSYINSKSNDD
T1 sequence (P05556 21-798): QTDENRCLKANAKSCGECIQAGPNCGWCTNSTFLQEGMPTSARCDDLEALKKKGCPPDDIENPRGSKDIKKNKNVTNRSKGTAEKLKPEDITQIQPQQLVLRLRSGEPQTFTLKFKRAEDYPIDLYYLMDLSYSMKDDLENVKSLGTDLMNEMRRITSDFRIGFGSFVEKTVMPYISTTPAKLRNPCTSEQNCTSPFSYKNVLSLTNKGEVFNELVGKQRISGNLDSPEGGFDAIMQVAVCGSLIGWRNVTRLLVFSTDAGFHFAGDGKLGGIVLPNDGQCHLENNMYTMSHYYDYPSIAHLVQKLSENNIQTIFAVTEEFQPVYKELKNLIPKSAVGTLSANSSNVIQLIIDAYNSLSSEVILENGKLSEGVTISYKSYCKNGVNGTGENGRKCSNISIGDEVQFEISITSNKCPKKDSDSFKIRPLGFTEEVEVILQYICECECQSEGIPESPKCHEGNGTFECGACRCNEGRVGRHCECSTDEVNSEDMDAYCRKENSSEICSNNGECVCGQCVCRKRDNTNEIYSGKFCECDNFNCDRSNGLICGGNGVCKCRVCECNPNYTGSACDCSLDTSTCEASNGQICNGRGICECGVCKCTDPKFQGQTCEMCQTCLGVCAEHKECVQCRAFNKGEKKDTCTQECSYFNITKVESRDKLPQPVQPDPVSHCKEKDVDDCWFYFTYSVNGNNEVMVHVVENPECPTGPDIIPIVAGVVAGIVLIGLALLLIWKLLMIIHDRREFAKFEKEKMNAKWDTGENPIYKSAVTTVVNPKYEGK
Type: cell-based
Description: Inhibition of α4β1-Dependent Cell Adhesion
Inhibition of α4β1-dependent cell adhesion was assayed by evaluating the interaction between the peptide CS-1 (H-CLHGPEILDVPST-CONH2) and Jurkat cells (T lymphocyte cell line expressing activated integrin α4β1 but not integrin α4β7) after preincubation of said cells with the compounds of formula I to be tested. The peptide CS-1 was synthesized by conventional solid phase chemistry and purified by HPLC. Its identity was determined by elemental analysis and mass spectroscopy.
1.—Preparation of CS-1-Coated Plates
96-black well plates (Costar 3925) were used. 200 μL of 2% bovine serum albumin solution (BSA, Sigma α4503) was added per well and the plate was incubated for 2 hours at 37° C. The solution was discarded and the plate was washed twice with 200 μL of phosphate buffered saline solution (PBS, Gibco 14190-094) per well. Then, 200 μL of 10 μg/mL N-succinimidyl 3-(2-pyridyldithio)propionate solution (SPDP, Sigma P-3415) was added per well, and the plate was incubated at 37° C. for 30 minutes. The remaining solution was discarded and the plate was twice washed with 200 μL per well of PBS. Next, 200 μL of 25 μg/mL CS-1 peptide solution (equivalent to 5 μg/well) was added per well and the plate was incubated at 37° C. for 2 hours and then overnight at 4° C.
2.—Jurkat Cell Line: Culture and Fluorescent Labelling
Jurkat cells were kept in culture at a density comprised between 2×10^5 and 1.5×10^6 cells/mL in 1640 RPMI medium (Gibco 21875-034) enriched with 10% fetal calf serum (FCS, Gibco 10270-106).
50×10^6 cells were extracted, centrifuged (1200 rpm, 10 min, room temperature) and the medium was discarded. Cells were resuspended in 5 mL of RPMI, and 10 μL of a 1 mM solution of the fluorophore calceine.AM (Molecular Probes, C-3100) was added. The suspension was incubated for 30 min at 37° C. in the darkness, with occasional shaking. 40 mL of RPMI was added to stop the labelling and the suspension was centrifuged (1200 rpm, 10 min, room temperature). The medium was discarded, and the labelled cells were washed with 40 mL of RPMI in order to remove the unincorporated fluorescent probe. Finally, cells were resuspended in RPMI enriched with 10% FCS to obtain a 8×10^6 cells/mL suspension.
The plate previously prepared was twice washed with 200 μL per well of PBS and blocked with 200 μL of 1% BSA for at least 1 hour at room temperature.
The products to be tested were dissolved in dimethylsulfoxide at a concentration of 10 mM and dilutions thereof were prepared in RPMI medium enriched with 10% FCS. The products were preincubated with the Jurkat cells at 37° C. for 30 minutes, at a product concentration comprised between 1 nM and 10 μM, at a cell density of 4×10^6 cells/mL and at a maximal dimethylsulfoxide concentration of 0.1%.
100 μL of the resulting cell-product supsension was added per well (cellular density 4×10^5 cells/well). The product was omitted in the control wells and cells or CS-1 were omitted in the blanks. The plate was incubated for 60 min at room temperature in the-darkness, was twice washed with 200 μL per well of RPMI and then 100 μL of PBS was added. The plate was read with a fluorescence reader at an excitation wavelength of 485 nm and at an emission wavelength of 530 nm.
Maximal adhesion (100%) was determined as the average of the fluorescence intensities (FI) of the control wells, and the minimal adhesion as the average FI of the blanks. The adhesion inhibition percentage was determined using the following formula: [formula]
The results are expressed as the IC50 values (concentration producing 50% inhibition). IC50 values were calculated by testing at least 6 product concentrations and by adjusting the inhibition percentages to a dose-response curve of variable slope.

Compound	IC50
CC(C)CC(=O)NCC1CCN(C(=O)CC[C@H](NC(=O)[C@@H]2CCCN2S(=O)(=O)c2cc(Cl)cc(Cl)c2)C(=O)O)CC1 [Example 55, (2S)-2-[1-(3,5-Dichlorophenylsulfonyl)-L-prolylamino]-5-[4-[(3-methylbutanoylamino)methyl]piperidin-1-yl]-5-oxopentanoic Acid]	58 nM
Cc1nc2cnccc2n1CC1CCN(C(=O)CC[C@H](NC(=O)[C@@H]2CCCN2S(=O)(=O)c2cc(Cl)cc(Cl)c2)C(=O)O)CC1 [Example 72, (2S)-2-[1-(3,5-Dichlorophenylsulfonyl)-L-prolylamino]-5-[4-(2-methylimidazo[4,5-c]pyridin-1-ylmethyl)piperidin-1-yl]-5-oxopentanoic Acid]	15 nM
Cc1ccc(S(=O)(=O)N2CCC[C@H]2C(=O)N[C@@H](CCC(=O)N2CCC(Cn3ccnc3-c3ccccc3)CC2)C(=O)O)cc1 [Example 63, (2S)-5-Oxo-5-[4-(2-phenylimidazol-1-ylmethyl)piperidin-1-yl]-2-[1-tosyl-L-prolylamino]pentanoic Acid]	198 nM
Cc1ccc(S(=O)(=O)N2CCC[C@H]2C(=O)N[C@@H](CCC(=O)N2CCN(Cc3cccs3)CC2)C(=O)O)cc1 [Example 77, (2S)-5-Oxo-5-[4-(2-thienylmethyl)piperazin-1-yl]-2-[[1-tosyl-L-prolyl]amino]pentanoic Acid]	247 nM
(2S)-2-[1-(3,5-Dichlorophenylsulfonyl)-L-prolylamino]-5-oxo-5-[4-(1-pyrrolylmethyl)piperidin-1-yl]pentanoic Acid [Example 81]	33 nM
Cc1ccc(S(=O)(=O)N2CCC[C@H]2C(=O)N[C@@H](CCC(=O)N2CCC(CN3Cc4ccccc4C3=O)CC2)C(=O)O)cc1 [Example 76, (2S)-5-Oxo-5-[4-(1-oxoisoindolin-2-ylmethyl)piperidin-1-yl]-2-[[1-tosyl-L-prolyl]amino]pentanoic Acid]	67 nM
O=C(O)[C@H](CCC(=O)N1CCC(CN2CCOC2=O)CC1)NC(=O)[C@@H]1CCCN1S(=O)(=O)c1cc(Cl)cc(Cl)c1 [Example 70, (2S)-2-[1-(3,5-Dichlorophenylsulfonyl)-L-prolylamino]-5-oxo-5-[4-(2-oxooxazolidin-3-ylmethyl)piperidin-1-yl]pentanoic Acid]	17 nM
CCNCC1CCN(C(=O)CC[C@H](NC(=O)[C@@H]2CCCN2S(=O)(=O)c2cc(Cl)cc(Cl)c2)C(=O)O)CC1 [Example 96, (2S)-2-[1-(3,5-Dichlorophenylsulfonyl)-L-prolylamino]-5-[4-[(ethylamino)methyl]piperidin-1-yl]-5-oxopentanoic Acid]	74.8 nM
O=C(O)[C@H](CCC(=O)N1CCC(CN2CCCC2=O)CC1)NC(=O)[C@@H]1CCCN1S(=O)(=O)c1cc(Cl)cc(Cl)c1 [Example 71, (2S)-2-[1-(3,5-Dichlorophenylsulfonyl)-L-prolylamino]-5-[4-(2-oxopyrrolidin-1-ylmethyl)piperidin-1-yl]-5-oxopentanoic Acid]	37 nM
Cc1ccc(S(=O)(=O)N2CCC[C@H]2C(=O)N[C@@H](CCC(=O)N2CCC(Cn3c(C)nc4cnccc43)CC2)C(=O)O)cc1 [Example 73, (2S)-5-[4-(2-Methylimidazo[4,5-c]pyridin-1-ylmethyl)piperidin-1-yl]-5-oxo-2-[1-tosyl-L-prolylamino]pentanoic Acid]	57 nM
O=C(O)[C@H](CCC(=O)N1CCC(Cn2c(=O)[nH]c3cnccc32)CC1)NC(=O)[C@@H]1CCCN1S(=O)(=O)c1cc(Cl)cc(Cl)c1 [Example 86, (2S)-2-[1-(3,5-Dichlorophenylsulfonyl)-L-prolylamino]-5-oxo-5-[4-(2-oxo-2,3-dihydroimidazo[4,5-c]pyridin-1-ylmethyl)piperidin-1-yl]pentanoic Acid]	18 nM
CN1CCN(C(=O)OCCC2CCN(C(=O)CC[C@H](NC(=O)[C@@H]3CCCN3S(=O)(=O)c3cc(Cl)cc(Cl)c3)C(=O)O)CC2)CC1 [Example 93, (2S)-2-[1-(3,5-Dichlorophenylsulfonyl)-L-prolylamino]-5-[4-[2-[(4-methylpiperazin-1-yl)carbonyloxy]ethyl]piperidin-1-yl]5-oxopentanoic Acid]	26.7 nM
CCc1nc2c(C)cc(C)nc2n1CC1CCN(C(=O)CC[C@H](NC(=O)[C@@H]2CCCN2S(=O)(=O)c2cc(Cl)cc(Cl)c2)C(=O)O)CC1 [Example 65]	45 nM

Now those with a lower IC50, led by results:

IC50	Compound
0.5 nM	O=C(O)[C@H](CCC(=O)N1CCC(CCN2CCOCC2)CC1)NC(=O)[C@@H]1CCCN1S(=O)(=O)c1cc(Cl)cc(Cl)c1 [Example 80, (2S)-2-[1-(3,5-Dichlorophenylsulfonyl)-L-prolylamino]-5-[4-[2-(4-morpholinyl)ethyl]piperidin-1-yl]-5-oxopentanoic Acid]
7.7 nM	Cc1nc2cnccc2n1CC1CCN(C(=O)NC[C@H](NC(=O)[C@@H]2CCCN2S(=O)(=O)c2cc(Cl)cc(Cl)c2)C(=O)O)CC1 [Example 89, (2S)-2-[1-(3,5-Dichlorophenylsulfonyl)-L-prolyl]amino-3-[[4-(2-methylimidazo[4,5-c]pyridin-1-ylmethyl)piperidin-1-ylcarbonyl]amino]propionic Acid]
13.1 nM	O=C(O)[C@H](CCC(=O)N1CCC(CNc2ccncc2)CC1)NC(=O)[C@@H]1CCCN1S(=O)(=O)c1cc(Cl)cc(Cl)c1 [Example 99, (2S)-2-[1-(3,5-Dichlorophenylsulfonyl)-L-prolylamino]-5-oxo-5-[4-(4-pyridylaminomethyl)piperidin-1-yl]pentanoic Acid]
4.9 nM	CN(C)CC1CCN(C(=O)NC[C@H](NC(=O)[C@@H]2CCCN2S(=O)(=O)c2cc(Cl)cc(Cl)c2)C(=O)O)CC1 [Example 95, (2S)-2-[1-(3,5-Dichlorophenylsulfonyl)-L-prolyl]amino-3-[[4 (dimethylaminomethyl)piperidin-1-ylcarbonyl]amino]propionic Acid]
12 nM	CCc1nc2cnccc2n1CC1CCN(C(=O)CC[C@H](NC(=O)[C@@H]2CCCN2S(=O)(=O)c2cc(Cl)cc(Cl)c2)C(=O)O)CC1 [Example 85, (2S)-2-[1-(3,5-Dichlorophenylsulfonyl)-L-prolylamino]-5-[4-(2-ethylimidazo[4,5-c]pyridin-1-ylmethyl)piperidin-1-yl]-5-oxopentanoic Acid]
9.8 nM	CN1CCN(C(=O)OCCC2CCN(C(=O)NC[C@H](NC(=O)[C@@H]3CCCN3S(=O)(=O)c3cc(Cl)cc(Cl)c3)C(=O)O)CC2)CC1 [Example 116, (2S)-2-[1-(3,5-Dichlorophenylsulfonyl)-L-prolyl]amino-3-[[4-[2-[(4-methylpiperazin-1-yl)carbonyloxy]ethyl]piperidin-1-ylcarbonyl]amino]propionic Acid]
6 nM	CN(C)CCN1CCN(C(=O)CC[C@H](NC(=O)[C@@H]2CCCN2S(=O)(=O)c2cc(Cl)cc(Cl)c2)C(=O)O)CC1 [Example 84, (2S)-2-[1-(3,5-Dichlorophenylsulfonyl)-L-prolylamino]-5-[4-[2-(dimethylamino)ethyl]piperazin-1-yl]-5-oxopentanoic Acid]
7.6 nM	CN1CCN(CC2CCN(C(=O)CC[C@H](NC(=O)[C@@H]3CCCN3S(=O)(=O)c3cc(Cl)cc(Cl)c3)C(=O)O)CC2)CC1 [Example 79, (2S)-2-[1-(3,5-Dichlorophenylsulfonyl)-L-prolylamino]-5-[4-(4-methylpiperazin-1-ylmethyl)piperidin-1-yl]-5-oxopentanoic Acid]
11.6 nM	CC(C)S(=O)(=O)NCC1CCN(C(=O)CC[C@H](NC(=O)[C@@H]2CCCN2S(=O)(=O)c2cc(Cl)cc(Cl)c2)C(=O)O)CC1 [Example 60, (2S)-2-[1-(3,5-Dichlorophenylsulfonyl)-L-prolylamino]-5-[4-[(isopropylsulfonylamino)methyl]piperidin-1-yl]-5-oxopentanoic Acid]
